Reference: ChEMBL document CHEMBL1146197, “Evolution of TEM-type enzymes: biochemical and genetic characterization of two new complex mutant TEM enzymes, TEM-151 and TEM-152, from a single patient” (Antimicrob Agents Chemother, 2007)
Values after ≈ are worked out from the molar mass of the structure shown.

Experiments:
Escherichia coli [1] = test: Antimicrobial activity against recombinant Escherichia coli DH5-alpha isolate expressing pBK-TEM-1 and TEM1 by disk diffusion assay; assay type: functional; details: DH5alpha
Escherichia coli [2] = test: Antimicrobial activity against Escherichia coli DH5-alpha isolate expressing pBK-CMV by […]; assay type: functional; details: DH5alpha
Escherichia coli [3] = test: Antimicrobial activity against recombinant Escherichia coli DH5-alpha isolate expressing pBK-TEM-28 and ESBL by disk diffusion assay; assay type: functional; details: DH5alpha
Escherichia coli [4] = test: microbe, parasite or virus in culture; assay type: functional; details: DH5alpha
Description: Antimicrobial activity against recombinant Escherichia coli DH5-alpha CL1179 isolate expressing pBK-TEM-152 and CMT by disk diffusion assay

Escherichia coli [5] = test: Antimicrobial activity against Escherichia coli DH5-alpha CF1295 isolate expressing CMT and TEM1 by […]; assay type: functional; details: DH5alpha
Escherichia coli [6] = test: Antimicrobial activity against recombinant Escherichia coli DH5-alpha isolate expressing pBK-TEM-36 and IRT by disk diffusion assay; assay type: functional; details: DH5alpha
Escherichia coli [7] = test: microbe, parasite or virus in culture; assay type: functional; details: DH5alpha; remark: listed apart in the source
Description: Antimicrobial activity against recombinant Escherichia coli DH5-alpha CL1295 isolate expressing pBK-TEM-151 and CMT by disk diffusion assay

Escherichia coli [8] = test: Antimicrobial activity against Escherichia coli DH5-alpha TC1179 isolate expressing TEM-1 by […]; assay type: functional; details: DH5alpha
Escherichia coli [9] = test: Antimicrobial activity against recombinant Escherichia coli DH5-alpha isolate expressing pBK-TEM-29 and ESBL by disk diffusion assay; assay type: functional; details: DH5alpha
Escherichia coli [10] = test: Antimicrobial activity against Escherichia coli DH5-alpha CF1179 isolate expressing CMT and TEM1 by […]; assay type: functional; details: DH5alpha
Escherichia coli [11] = test: Antimicrobial activity against Escherichia coli DH5-alpha TC1295 isolate expressing TEM-1 by […]; assay type: functional; details: DH5alpha
Escherichia coli [12] = test: Activity of Escherichia coli BL21(DE3) beta-lactamase TEM152
Escherichia coli [13] = test: Activity of Escherichia coli BL21(DE3) beta-lactamase TEM28
Escherichia coli [14] = test: Activity of Escherichia coli BL21(DE3) beta-lactamase TEM36
Escherichia coli [15] = test: Activity of Escherichia coli BL21(DE3) beta-lactamase TEM151
Escherichia coli [16] = test: Activity of Escherichia coli BL21(DE3) beta-lactamase TEM29
Escherichia coli [17] = test: Activity of Escherichia coli BL21(DE3) beta-lactamase TEM1
[18] = Inhibition of Escherichia coli BL21(DE3) beta-lactamase TEM29
[19] = Inhibition of Escherichia coli BL21(DE3) beta-lactamase TEM152
[20] = Inhibition of Escherichia coli BL21(DE3) beta-lactamase TEM151
[21] = Inhibition of Escherichia coli BL21(DE3) beta-lactamase TEM28
[22] = Inhibition of Escherichia coli BL21(DE3) beta-lactamase TEM1
[23] = Inhibition of Escherichia coli BL21(DE3) beta-lactamase TEM36

Row | Structure (SMILES) | MIC (Escherichia coli [1]) [µg/mL] | MIC (Escherichia coli [2]) [µg/mL] | MIC (Escherichia coli [3]) [µg/mL] | MIC (Escherichia coli [4]) [µg/mL] | MIC (Escherichia coli [5]) [µg/mL] | MIC (Escherichia coli [6]) [µg/mL] | MIC (Escherichia coli [7]) [µg/mL] | MIC (Escherichia coli [8]) [µg/mL] | MIC (Escherichia coli [9]) [µg/mL] | MIC (Escherichia coli [10]) [µg/mL] | MIC (Escherichia coli [11]) [µg/mL] | Km (Escherichia coli [12]) [µM] | kcat (Escherichia coli [12]) [s⁻¹] | kcat/Km (Escherichia coli [12]) [M⁻¹ s⁻¹] | Km (Escherichia coli [13]) [µM] | kcat (Escherichia coli [13]) [s⁻¹] | kcat/Km (Escherichia coli [13]) [M⁻¹ s⁻¹] | Km (Escherichia coli [14]) [µM] | kcat (Escherichia coli [14]) [s⁻¹] | kcat/Km (Escherichia coli [14]) [M⁻¹ s⁻¹] | other results
1 | CO/N=C(\C(=O)N[C@@H]1C(=O)N2C(C(=O)O)=C(COC(N)=O)CS[C@H]12)c1ccco1 [CEFUROXIME] | 4 | 4 (≈ 9.43 µM) | 16 | 8 (≈ 18.9 µM) | 8 (≈ 18.9 µM) | 8 | 8 (≈ 18.9 µM) | 4 (≈ 9.43 µM) | 1020 | 8 (≈ 18.9 µM) | 4 (≈ 9.43 µM) |  |  |  |  |  |  |  |  |  | 
2 | CC(=O)OCC1=C(C(=O)O)N2C(=O)[C@@H](NC(=O)Cc3cccs3)[C@H]2SC1 [CEPHALOTHIN] | 4 | 4 (≈ 10.1 µM) | 128 | 16 (≈ 40.4 µM) | 32 (≈ 80.7 µM) | 16 | 8 (≈ 20.2 µM) | 4 (≈ 10.1 µM) | 64 | 32 (≈ 80.7 µM) | 4 (≈ 10.1 µM) | 260 | 4 | 20000 | 288 | 194 | 670000 | 335 | 18.4 | 50000 | Km (Escherichia coli [15]): 330 µM; kcat (Escherichia coli [15]): 15 s⁻¹; kcat/Km (Escherichia coli [15]): 40000 M⁻¹ s⁻¹; Km (Escherichia coli [16]): 205 µM; kcat (Escherichia coli [16]): 126 s⁻¹; kcat/Km (Escherichia coli [16]): 610000 M⁻¹ s⁻¹; Km (Escherichia coli [17]): 242 µM; kcat (Escherichia coli [17]): 165 s⁻¹; kcat/Km (Escherichia coli [17]): 700000 M⁻¹ s⁻¹
3 | O=C(O)[C@H]1/C(=C/CO)O[C@@H]2CC(=O)N21 [CLAVULANIC ACID] |  |  |  |  |  |  |  |  |  |  |  |  |  |  |  |  |  |  |  |  | IC50 [18]: 20500 nM; IC50 [19]: 1000 nM; IC50 [20]: 170 nM; IC50 [21]: 20 nM; IC50 [22]: 25 nM; IC50 [23]: 80 nM
4 | CCN1CCN(C(=O)N[C@@H](C(=O)N[C@@H]2C(=O)N3[C@@H]2SC(C)(C)[C@@H]3C(=O)O)c2ccccc2)C(=O)C1=O [PIPERACILLIN] | 512 | 2 (≈ 3.86 µM) | > 2050 | > 2050 | 512 (≈ 989 µM) | > 2050 | 256 (≈ 495 µM) | 512 (≈ 989 µM) | 1020 | > 2050 | 512 (≈ 989 µM) | 50 | 306 | 6.12e+06 | 27 | 213 | 7.9e+06 | 170 | 1220 | 7.1e+06 | Km (Escherichia coli [15]): 44 µM; kcat (Escherichia coli [15]): 172 s⁻¹; kcat/Km (Escherichia coli [15]): 3.9e+06 M⁻¹ s⁻¹; Km (Escherichia coli [16]): 39 µM; kcat (Escherichia coli [16]): 336 s⁻¹; kcat/Km (Escherichia coli [16]): 8.6e+06 M⁻¹ s⁻¹; Km (Escherichia coli [17]): 55 µM; kcat (Escherichia coli [17]): 1250 s⁻¹; kcat/Km (Escherichia coli [17]): 2.3e+06 M⁻¹ s⁻¹
5 | C[C@]1(Cn2ccnn2)[C@H](C(=O)O)N2C(=O)C[C@H]2S1(=O)=O [TAZOBACTAM] |  |  |  |  |  |  |  |  |  |  |  |  |  |  |  |  |  |  |  |  | IC50 [18]: 2400 nM; IC50 [19]: 400 nM; IC50 [20]: 270 nM; IC50 [21]: 20 nM; IC50 [22]: 30 nM; IC50 [23]: 130 nM
6 | CC1(C)S[C@@H]2[C@H](NC(=O)[C@H](C(=O)O)c3ccsc3)C(=O)N2[C@H]1C(=O)O [TICARCILLIN] | > 2050 | 2 (≈ 5.2 µM) | > 2050 | > 2050 | > 2050 | > 2050 | > 2050 | > 2050 | > 2050 | > 2050 | > 2050 | 36 | 51 | 1.4e+06 | 9 | 38 | 4.2e+06 | 130 | 176 | 1.3e+06 | Km (Escherichia coli [15]): 21 µM; kcat (Escherichia coli [15]): 60 s⁻¹; kcat/Km (Escherichia coli [15]): 2.9e+06 M⁻¹ s⁻¹; Km (Escherichia coli [16]): 14 µM; kcat (Escherichia coli [16]): 42 s⁻¹; kcat/Km (Escherichia coli [16]): 3e+06 M⁻¹ s⁻¹; Km (Escherichia coli [17]): 36 µM; kcat (Escherichia coli [17]): 135 s⁻¹; kcat/Km (Escherichia coli [17]): 3.8e+06 M⁻¹ s⁻¹
